Results taken from BigSolDB 2.1.

Clc1ccccc1C(c1ccccc1)(c1ccccc1)n1ccnc1
solubility (mole fraction)
Conditions	293.15 K	298.15 K	303.15 K	308.15 K	313.15 K
in n-hexane	0.000222	0.000267	0.000319	0.000383	0.000455
in n-octanol	0.0204	0.0249	0.0304	0.0372	0.045
